Data reported in DBAASP.
Converted amounts (≈) assume the structure as drawn.

How the values were obtained:
Assay in all cases: ≥ marks a high value that may be exact or a test limit, other limits are often not marked, values filed in µg/mL are converted to µM
[1] = tested on: Candida albicans ATCC 2002
[2] = tested on: Escherichia coli ATCC 25922
[3] = tested on: Staphylococcus aureus ATCC 25923
[4] = tested on: Pseudomonas aeruginosa CMCCB 10104
[5] = tested on: Candida parapsilosis ATCC 22019
[6] = tested on: Staphylococcus epidermidis ATCC 12228
[7] = tested on: Bacillus subtilis

Row | Compound | MIC [1] | MIC [2] | MIC [3] | MIC [4] | MIC [5] | MIC [6] | MIC [7]
1 | CC(C)C[C@H](NC(=O)CNC(=O)[C@@H]1CCCN1C(=O)[C@H](CC(C)C)NC(=O)[C@@H](N)Cc1ccccc1)C(=O)N[C@@H](CCC(=O)O)C(=O)N[C@@H](CS)C(=O)N[C@H](C(=O)N[C@@H](Cc1c[nH]c2ccccc12)C(=O)O)C(C)C [FLPGLECVW] | ≥ 188 µM | > 188 µM | > 188 µM | ≥ 188 µM |  |  | 
2 | C[C@@H](O)[C@H](NC(=O)[C@H](CO)NC(=O)[C@H](Cc1ccccc1)NC(=O)[C@@H](N)Cc1ccccc1)C(=O)N[C@@H](CO)C(=O)N[C@H]1CSSC[C@@H](C(=O)O)NC(=O)CNC(=O)[C@H](CO)NC(=O)[C@H](CCCN=C(N)N)NC1=O [FFSTSCRSGC] | ≥ 91.4 µM | > 91.4 µM | > 91.4 µM | ≥ 91.4 µM |  |  | 
3 | CC[C@H](C)[C@H](NC(=O)CNC(=O)[C@H](CCCCN)NC(=O)CNC(=O)[C@@H](NC(=O)[C@H](Cc1ccccc1)NC(=O)[C@H](CCCCN)NC(=O)[C@H](CO)NC(=O)[C@H](Cc1ccccc1)NC(=O)[C@H](CC(C)C)NC(=O)CN)C(C)C)C(=O)N[C@@H](CCCCN)C(=O)N[C@@H](CC(N)=O)C(=O)N[C@@H](Cc1ccccc1)C(=O)N[C@@H](CC(C)C)C(=O)N[C@H](C(=O)N[C@@H](CCCCN)C(=O)NCC(=O)N[C@H](C(=O)N[C@@H](CCCCN)C(=O)N[C@@H](Cc1cnc[nH]1)C(=O)N[C@H](C(=O)NCC(=O)N[C@@H](CCCCN)C(=O)N[C@@H](CCC(=O)O)C(=O)N[C@H](C(=O)NCC(=O)N[C@@H](CCSC)C(=O)N[C@@H](CC(=O)O)C(=O)N[C@H](C(=O)N[C@H](C(=O)N[C@@H](CCCN=C(N)N)C(=O)N[C@H](C(=O)NCC(=O)N[C@H](C(=O)N[C@@H](CC(=O)O)C(=O)N[C@H](C(=O)N[C@@H](C)C(=O)NCC(=O)N[C@H]1CSSC[C@@H](C(=O)O)NC(=O)[C@H](C(C)C)NC(=O)CNC(=O)[C@H](CCCCN)NC(=O)[C@H]([C@@H](C)CC)NC(=O)[C@H](CCCCN)NC1=O)C(C)C)[C@@H](C)CC)C(C)C)[C@@H](C)CC)C(C)C)C(C)C)[C@@H](C)CC)C(C)C)[C@@H](C)CC [GLFSKFVGKGIKNFLIKGVKHIGKEVGMDVIRVGIDVAGCKIKGVC] | 0.494 µM (≈ 2.4 µg/mL) | 0.247 µM (≈ 1.2 µg/mL) | 0.247 µM (≈ 1.2 µg/mL) | 0.247 µM (≈ 1.2 µg/mL) |  |  | 
4 | CC[C@H](C)[C@@H]1NC(=O)[C@H](CCCCN)NC(=O)[C@@H](NC(=O)[C@H](CCCCN)NC(=O)[C@H](CC(C)C)NC(=O)[C@H](CC(N)=O)NC(=O)[C@H](CC(=O)O)NC(=O)[C@H](CC(C)C)NC(=O)[C@H](CC(C)C)NC(=O)[C@H](CC(N)=O)NC(=O)CNC(=O)[C@H](C)NC(=O)[C@H](CCSC)NC(=O)[C@H](CC(N)=O)NC(=O)[C@H](CCCCN)NC(=O)[C@H](C)NC(=O)[C@@H](NC(=O)[C@H](CC(N)=O)NC(=O)[C@H](CCCCN)NC(=O)[C@H](C)NC(=O)[C@@H](NC(=O)[C@H](CC(=O)O)NC(=O)[C@H](CCSC)NC(=O)[C@H](Cc2ccccc2)NC(=O)CN)[C@@H](C)O)C(C)C)CSSC[C@@H](C(=O)O)NC(=O)[C@H](C)NC(=O)[C@H](CCCCN)NC(=O)[C@H]([C@@H](C)O)NC1=O [GFMDTAKNVAKNMAGNLLDNLKCKITKAC] | 0.803 µM (≈ 2.5 µg/mL) | 1.61 µM (≈ 5 µg/mL) | 0.803 µM (≈ 2.5 µg/mL) | 3.21 µM (≈ 9.99 µg/mL) |  |  | 
5 | CC[C@H](C)[C@@H]1NC(=O)[C@H](CCCCN)NC(=O)[C@@H](NC(=O)[C@H](CCCCN)NC(=O)[C@H](CC(C)C)NC(=O)[C@H](CC(N)=O)NC(=O)[C@H](CC(=O)O)NC(=O)[C@H](CC(C)C)NC(=O)[C@H](CC(C)C)NC(=O)[C@@H](NC(=O)[C@@H](NC(=O)[C@H](C)NC(=O)[C@H](CCSC)NC(=O)[C@H](CC(N)=O)NC(=O)[C@H](CCCCN)NC(=O)[C@H](C)NC(=O)[C@@H](NC(=O)[C@H](CC(N)=O)NC(=O)[C@H](CCCCN)NC(=O)[C@H](C)NC(=O)[C@@H](NC(=O)[C@H](CC(=O)O)NC(=O)[C@H](CCSC)NC(=O)[C@H](Cc2ccccc2)NC(=O)CN)[C@@H](C)O)C(C)C)C(C)C)[C@@H](C)O)CSSC[C@@H](C(=O)O)NC(=O)[C@H](C)NC(=O)[C@H](CCCCN)NC(=O)[C@H]([C@@H](C)O)NC1=O [GFMDTAKNVAKNMAVTLLDNLKCKITKAC] | 1.21 µM (≈ 3.8 µg/mL) | 2.39 µM (≈ 7.5 µg/mL) | 1.21 µM (≈ 3.8 µg/mL) | 2.39 µM (≈ 7.5 µg/mL) |  |  | 
6 | CC[C@H](C)[C@H](NC(=O)[C@H](C)NC(=O)CNC(=O)[C@H](CC(C)C)NC(=O)[C@@H](N)Cc1ccccc1)C(=O)N[C@@H](C)C(=O)N[C@@H](CCC(N)=O)C(=O)N[C@@H](C)C(=O)N[C@@H](CC(C)C)C(=O)N[C@H](C(=O)N[C@@H](CO)C(=O)N[C@@H](CC(C)C)C(=O)N[C@@H](CC(C)C)C(=O)NCC(=O)N[C@@H](CCCCN)C(=O)N[C@@H](CC(C)C)C(N)=O)[C@@H](C)O [FLGAIAQALTSLLGKL] |  | > 128 µM |  |  | ≥ 64 µM | 8 µM (≈ 12.9 µg/mL) | 

Now from value to compound:

Row | MIC [1] | MIC [2] | MIC [3] | MIC [4] | MIC [5] | MIC [6] | MIC [7] | Compound
7 | 3.16 µM (≈ 10.5 µg/mL) | 3.16 µM (≈ 10.5 µg/mL) | 3.16 µM (≈ 10.5 µg/mL) | 6.32 µM (≈ 21 µg/mL) |  |  |  | CC[C@H](C)[C@H](NC(=O)[C@H](CC(C)C)NC(=O)[C@H](CC(C)C)NC(=O)[C@H](CC(=O)O)NC(=O)[C@H](CCCCN)NC(=O)[C@@H](NC(=O)[C@@H](NC(=O)CNC(=O)[C@H](CCSC)NC(=O)[C@@H](NC(=O)[C@@H](N)CO)C(C)C)[C@@H](C)O)C(C)C)C(=O)NCC(=O)N[C@@H](C)C(=O)NCC(=O)N[C@@H](CCCCN)C(=O)N[C@@H](CO)C(=O)N[C@@H](C)C(=O)N[C@@H](C)C(=O)N[C@@H](CCC(N)=O)C(=O)N[C@@H](CO)C(=O)N[C@H](C(=O)N[C@@H](CC(C)C)C(=O)N[C@@H](CCCCN)C(=O)N[C@@H](C)C(=O)N[C@@H](CC(C)C)C(=O)N[C@@H](CO)C(=O)N[C@H]1CSSC[C@@H](C(=O)O)NC(=O)[C@H](CC(=O)O)NC(=O)[C@H](CCCCN)NC(=O)[C@H](CO)NC(=O)[C@H](CC(C)C)NC(=O)[C@H](CCCCN)NC1=O)C(C)C [SVMGTVKDLLIGAGKSAAQSVLKALSCKLSKDC]
8 | 2.09 µM (≈ 8.1 µg/mL) | 2.09 µM (≈ 8.1 µg/mL) | 1.06 µM (≈ 4.1 µg/mL) | 4.18 µM (≈ 16.2 µg/mL) |  |  |  | CC[C@H](C)[C@H](NC(=O)[C@H](CC(C)C)NC(=O)[C@H](CCC(N)=O)NC(=O)[C@@H](NC(=O)[C@H](C)NC(=O)CNC(=O)[C@H](CCCCN)NC(=O)[C@@H](NC(=O)[C@H](CC(C)C)NC(=O)[C@@H](NC(=O)[C@H](Cc1ccccc1)NC(=O)[C@@H](NC(=O)CN)C(C)C)[C@@H](C)O)[C@@H](C)CC)[C@@H](C)O)C(=O)NCC(=O)N[C@@H](CCCCN)C(=O)N[C@H](C(=O)N[C@@H](CC(C)C)C(=O)NCC(=O)N[C@@H](CCCCN)C(=O)N[C@@H](CCC(=O)O)C(=O)N[C@H](C(=O)NCC(=O)N[C@@H](CCCCN)C(=O)N[C@H](C(=O)NCC(=O)N[C@@H](CC(C)C)C(=O)N[C@@H](CCC(=O)O)C(=O)N[C@@H](CC(C)C)C(=O)N[C@@H](CCSC)C(=O)N[C@@H](C)C(=O)N[C@H]1CSSC[C@@H](C(=O)O)NC(=O)[C@H](CCC(N)=O)NC(=O)[C@H](CCCCN)NC(=O)[C@H]([C@@H](C)O)NC(=O)[C@H]([C@@H](C)CC)NC(=O)[C@H](CCCCN)NC1=O)[C@@H](C)O)C(C)C)[C@@H](C)O [GVFTLIKGATQLIGKTLGKEVGKTGLELMACKITKQC]
9 | 4.45 µM (≈ 15.8 µg/mL) | 4.45 µM (≈ 15.8 µg/mL) | 2.22 µM (≈ 7.9 µg/mL) | 2.22 µM (≈ 7.9 µg/mL) |  |  |  | CC[C@H](C)[C@H](NC(=O)[C@H](C)NC(=O)[C@H](CC(C)C)NC(=O)[C@H](CCC(=O)O)NC(=O)[C@H](CCCCN)NC(=O)[C@H](Cc1ccccc1)NC(=O)[C@@H](NC(=O)[C@H](CO)NC(=O)[C@H](CC(C)C)NC(=O)[C@H](Cc1ccccc1)NC(=O)[C@@H](N)CO)[C@@H](C)O)C(=O)N[C@@H](CC(N)=O)C(=O)N[C@@H](C)C(=O)N[C@@H](C)C(=O)N[C@@H](CCCCN)C(=O)N[C@@H](CC(N)=O)C(=O)N[C@@H](C)C(=O)NCC(=O)N[C@@H](CCC(N)=O)C(=O)N[C@@H](CO)C(=O)N[C@@H](CC(C)C)C(=O)N[C@@H](CC(C)C)C(=O)N[C@@H](Cc1cnc[nH]1)C(=O)N[C@H](C(=O)N[C@@H](CC(C)C)C(=O)N[C@@H](CO)C(=O)N[C@H]1CSSC[C@@H](C(=O)O)NC(=O)[C@H]([C@@H](C)O)NC(=O)[C@H](CCCCN)NC(=O)[C@H](CC(=O)O)NC(=O)[C@H](CC(C)C)NC(=O)[C@H](CCCCN)NC1=O)[C@@H](C)O [SFLSTFKELAINAAKNAGQSLLHTLSCKLDKTC]
10 | 0.211 µM (≈ 0.586 µg/mL) | 7.11 µM (≈ 19.8 µg/mL) | 0.422 µM (≈ 1.17 µg/mL) |  |  |  | 2.53 µM (≈ 7.03 µg/mL) | CC[C@H](C)[C@H](NC(=O)[C@H](C)NC(=O)[C@H](CCCN=C(N)N)NC(=O)[C@H](Cc1ccc(O)cc1)NC(=O)[C@H](CC(C)C)NC(=O)[C@H](CC(N)=O)NC(=O)[C@H](Cc1ccc(O)cc1)NC(=O)CNC(=O)[C@H](C)NC(=O)[C@@H](NC(=O)[C@@H](NC(=O)[C@@H](NC(=O)[C@H](CCCN=C(N)N)NC(=O)[C@@H](NC(=O)[C@@H](NC(=O)[C@@H](NC(=O)[C@@H]1CCCN1C(=O)[C@H](Cc1c[nH]c2ccccc12)NC(=O)[C@H](Cc1ccccc1)NC(=O)[C@@H](N)CCCN=C(N)N)C(C)C)C(C)C)[C@@H](C)CC)[C@@H](C)O)C(C)C)C(C)C)C(=O)N[C@@H](CCCCN)C(=O)N[C@@H](CCCCN)C(=O)N[C@@H](CCCCN)C(=O)O [RFWPVVIRTVVAGYNLYRAIKKK]
